According to publication PMC2219267 (The Journal of General Physiology, 1996):

What was measured:
band 3 [1] = target: T1, band 3 (Homo sapiens, UniProt P02730); details: cited from earlier work
T1 sequence (P02730 1-911): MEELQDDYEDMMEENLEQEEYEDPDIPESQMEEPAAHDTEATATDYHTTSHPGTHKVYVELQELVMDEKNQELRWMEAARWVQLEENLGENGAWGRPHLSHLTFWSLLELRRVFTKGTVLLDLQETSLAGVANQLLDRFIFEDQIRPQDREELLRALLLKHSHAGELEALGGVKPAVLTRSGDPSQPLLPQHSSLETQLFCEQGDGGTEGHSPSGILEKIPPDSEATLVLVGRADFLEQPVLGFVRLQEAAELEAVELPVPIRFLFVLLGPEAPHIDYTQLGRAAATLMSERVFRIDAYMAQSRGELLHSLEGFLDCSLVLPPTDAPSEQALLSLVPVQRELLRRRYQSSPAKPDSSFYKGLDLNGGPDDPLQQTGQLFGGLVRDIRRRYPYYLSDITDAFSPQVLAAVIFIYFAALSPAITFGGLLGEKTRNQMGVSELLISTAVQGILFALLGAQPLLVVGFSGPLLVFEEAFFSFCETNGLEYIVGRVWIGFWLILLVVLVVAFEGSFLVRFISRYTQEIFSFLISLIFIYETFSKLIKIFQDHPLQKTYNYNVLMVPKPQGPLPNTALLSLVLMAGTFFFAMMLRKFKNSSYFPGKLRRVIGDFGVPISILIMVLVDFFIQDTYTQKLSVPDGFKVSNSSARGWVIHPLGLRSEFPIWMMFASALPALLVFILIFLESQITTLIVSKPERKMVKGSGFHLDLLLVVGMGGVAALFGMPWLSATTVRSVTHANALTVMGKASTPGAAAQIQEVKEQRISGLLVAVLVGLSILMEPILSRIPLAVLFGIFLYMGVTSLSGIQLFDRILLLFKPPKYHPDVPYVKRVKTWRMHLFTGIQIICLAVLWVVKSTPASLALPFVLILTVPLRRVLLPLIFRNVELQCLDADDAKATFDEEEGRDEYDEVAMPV

band 3 [2] = target: T1, band 3; assay: 36Cl exchange flux inhibition in red blood cells, Dixon plots; format: cell-based; details: for ID50 for iodide in the medium with low Cl- concentration: 0°C; for DS·Clo (Dixon slope times [Clo]) / Dixon slope (DS) for Io inhibition of Cl- exchange / High/low: DS·Clo at the highest [Clo] divided by that at the given [Clo]: sucrose

ID50 for iodide in the medium with low Cl- concentration (band 3 [2]; exp 60, pHo 7.2, Hepes, Cli 129 mM, low Clo 2.0 mM): 2.77 mM
DS·Clo (Dixon slope times [Clo]) (band 3 [2]; exp 60, pHo 7.2, Clo 2 mM): 0.0823
Dixon slope (DS) for Io inhibition of Cl- exchange (band 3 [2]; exp 60, pHo 7.2, Clo 2 mM): 0.0412
High/low: DS·Clo at the highest [Clo] divided by that at the given [Clo] (band 3 [2]; exp 60, pHo 7.2, Clo 2 mM): 4.69
DS·Clo (Dixon slope times [Clo]) (band 3 [2]; exp 60, pHo 7.2, Clo 150 mM): 0.386
Dixon slope (DS) for Io inhibition of Cl- exchange (band 3 [2]; exp 60, pHo 7.2, Clo 150 mM): 0.00257
ID50 for iodide in the medium with low Cl- concentration (band 3 [2]; exp 60, pHo 10.7, CHES, Cli 129 mM, low Clo 2.0 mM): 12.9 mM
DS·Clo (Dixon slope times [Clo]) (band 3 [2]; exp 60, pHo 10.7, Clo 2 mM): 0.1169
Dixon slope (DS) for Io inhibition of Cl- exchange (band 3 [2]; exp 60, pHo 10.7, Clo 2 mM): 0.0584
High/low: DS·Clo at the highest [Clo] divided by that at the given [Clo] (band 3 [2]; exp 60, pHo 10.7, Clo 2 mM): 1.79
DS·Clo (Dixon slope times [Clo]) (band 3 [2]; exp 60, pHo 10.7, Clo 150 mM): 0.2096
Dixon slope (DS) for Io inhibition of Cl- exchange (band 3 [2]; exp 60, pHo 10.7, Clo 150 mM): 0.0014
ID50 for iodide in the medium with low Cl- concentration (band 3 [2]; exp 60a, pHo 7.2, Hepes, Cli 149 mM, low Clo 1.0 mM): 2.44 mM
DS·Clo (Dixon slope times [Clo]) (band 3 [2]; exp 60a, pHo 7.2, Clo 1 mM): 0.0509
Dixon slope (DS) for Io inhibition of Cl- exchange (band 3 [2]; exp 60a, pHo 7.2, Clo 1 mM): 0.0509
High/low: DS·Clo at the highest [Clo] divided by that at the given [Clo] (band 3 [2]; exp 60a, pHo 7.2, Clo 1 mM): 6.67
DS·Clo (Dixon slope times [Clo]) (band 3 [2]; exp 60a, pHo 7.2, Clo 150 mM): 0.339
Dixon slope (DS) for Io inhibition of Cl- exchange (band 3 [2]; exp 60a, pHo 7.2, Clo 150 mM): 0.00226
ID50 for iodide in the medium with low Cl- concentration (band 3 [2]; exp 60a, pHo 10.7, CHES, Cli 149 mM, low Clo 2.0 mM): 22.6 mM
DS·Clo (Dixon slope times [Clo]) (band 3 [2]; exp 60a, pHo 10.7, Clo 2 mM): 0.1078
Dixon slope (DS) for Io inhibition of Cl- exchange (band 3 [2]; exp 60a, pHo 10.7, Clo 2 mM): 0.0539
High/low: DS·Clo at the highest [Clo] divided by that at the given [Clo] (band 3 [2]; exp 60a, pHo 10.7, Clo 2 mM): 2.13
DS·Clo (Dixon slope times [Clo]) (band 3 [2]; exp 60a, pHo 10.7, Clo 150 mM): 0.2300
Dixon slope (DS) for Io inhibition of Cl- exchange (band 3 [2]; exp 60a, pHo 10.7, Clo 150 mM): 0.00153
ID50 for iodide in the medium with low Cl- concentration (band 3 [2]; exp 61, pHo 11.6, CAPS, Cli 131 mM, low Clo 50 mM): 34.9 mM
DS·Clo (Dixon slope times [Clo]) (band 3 [2]; exp 61, pHo 11.6, Clo 50 mM): 0.2858
Dixon slope (DS) for Io inhibition of Cl- exchange (band 3 [2]; exp 61, pHo 11.6, Clo 50 mM): 0.00572
High/low: DS·Clo at the highest [Clo] divided by that at the given [Clo] (band 3 [2]; exp 61, pHo 11.6, Clo 50 mM): 0.94
DS·Clo (Dixon slope times [Clo]) (band 3 [2]; exp 61, pHo 11.6, Clo 150 mM): 0.2682
Dixon slope (DS) for Io inhibition of Cl- exchange (band 3 [2]; exp 61, pHo 11.6, Clo 150 mM): 0.00179
ID50 for iodide in the medium with low Cl- concentration (band 3 [2]; exp 61a, pHo 11.6, CAPS, Cli 144 mM, low Clo 28 mM): 46.6 mM
DS·Clo (Dixon slope times [Clo]) (band 3 [2]; exp 61a, pHo 11.6, Clo 27.5 mM): 0.2089
Dixon slope (DS) for Io inhibition of Cl- exchange (band 3 [2]; exp 61a, pHo 11.6, Clo 27.5 mM): 0.0076
High/low: DS·Clo at the highest [Clo] divided by that at the given [Clo] (band 3 [2]; exp 61a, pHo 11.6, Clo 27.5 mM): 0.77
DS·Clo (Dixon slope times [Clo]) (band 3 [2]; exp 61a, pHo 11.6, Clo I10 mM): 0.1613
Dixon slope (DS) for Io inhibition of Cl- exchange (band 3 [2]; exp 61a, pHo 11.6, Clo I10 mM): 0.00147
ID50 for iodide in the medium with low Cl- concentration (band 3 [2]; exp 64, pHo 8.66, CHES, Cli 138 mM, low Clo 0.9 mM): 3.06 mM
ID50 for iodide in the medium with low Cl- concentration (band 3 [2]; exp 64, pHo 9.9, CHES, Cli 138 mM, low Clo 2.2 mM): 7.48 mM
ID50 for iodide in the medium with low Cl- concentration (band 3 [2]; exp 64a, pHo 8.66, CHES, Cli 137 mM, low Clo 0.9 mM): 2.24 mM
ID50 for iodide in the medium with low Cl- concentration (band 3 [2]; exp 64a, pHo 9.9, CHES, Cli 137 mM, low Clo 2.2 mM): 7.57 mM
ID50 for iodide in the medium with low Cl- concentration (band 3 [2]; exp 67, pHo 8.5, CHES, Cli 144 mM, low Clo 0.6 mM): 2.18 mM
ID50 for iodide in the medium with low Cl- concentration (band 3 [2]; exp 70, pHo 7.2, Hepes, Cli 147 mM, low Clo 0.6 mM): 1.47 mM
DS·Clo (Dixon slope times [Clo]) (band 3 [2]; exp 70, pHo 7.2, Clo 0.59 mM): 0.0584
Dixon slope (DS) for Io inhibition of Cl- exchange (band 3 [2]; exp 70, pHo 7.2, Clo 0.59 mM): 0.0996
High/low: DS·Clo at the highest [Clo] divided by that at the given [Clo] (band 3 [2]; exp 70, pHo 7.2, Clo 0.59 mM): 5.52
DS·Clo (Dixon slope times [Clo]) (band 3 [2]; exp 70, pHo 7.2, Clo 110 mM): 0.322
Dixon slope (DS) for Io inhibition of Cl- exchange (band 3 [2]; exp 70, pHo 7.2, Clo 110 mM): 0.00293
ID50 for iodide in the medium with low Cl- concentration (band 3 [2]; exp 70, pHo 8.5, CHES, Cli 147 mM, low Clo 0.6 mM): 1.82 mM
ID50 for iodide in the medium with low Cl- concentration (band 3 [2]; exp 72, pHo 8.0, Hepes, Cli 129 mM, low Clo 0.9 mM): 1.82 mM
ID50 for iodide in the medium with low Cl- concentration (band 3 [2]; exp 72, pHo 9.2, CHES, Cli 129 mM, low Clo 0.9 mM): 4.19 mM
ID50 for iodide in the medium with low Cl- concentration (band 3 [2]; exp 74, pHo 8.5, CHES, Cli 156 mM, low Clo 1.1 mM): 2.10 mM
ID50 for iodide in the medium with low Cl- concentration (band 3 [2]; exp 80, pHo 9.2, CHES, Cli 142 mM, low Clo 0.9 mM): 3.88 mM
ID50 for iodide in the medium with low Cl- concentration (band 3 [2]; exp 81, pHo 8.5, Hepes, Cli 142 mM, low Clo 0.6 mM): 2.31 mM
ID50 for iodide in the medium with low Cl- concentration (band 3 [2]; exp 81, pHo 10, CHES, Cli 142 mM, low Clo 1.7 mM): 7.81 mM
ID50 for iodide in the medium with low Cl- concentration (band 3 [2]; exp 82, pHo 10, CHES, Cli 138 mM, low Clo 1.7 mM): 9.85 mM
Compound: [I-].[K+] [iodide, potassium iodide]
transport rate relative to Cl- (band 3 [1]; 0°C, pH 7.4, ref Dalmark and Wieth, 1972): 260 times slower
1/R, ratio of dissociation constants alkaline/neutral state (band 3 [1]; ref Bjerrum (1992)): 35.8
R = K++I/K+I, ratio of I- dissociation constants for neutral and alkaline forms (band 3 [1]; ref Bjerrum (1992)): 0.0279
